Test results as given in patent publication US20240300943A1, “NOVEL SALTS OF HETEROCYCLIC COMPOUND AS PROTEIN KINASE INHIBITOR AND USES THEREOF” (HK INNO.N CORPORATION, priority 2021, published 2024).

Tests used:
[1] = tested on: DNCB-induced animal model (NC/Nga mice); experiment: DNCB-induced atopic dermatitis model (topical); format: in vivo; conditions: for Reduction of scratching behavior compared to the control group (vehicle): week 4, FIG. 12
Description: NC/Nga mice were anesthetized with isoflurane and the dorsal hair (from the bottom of the ear to the top of the tail) was then removed. The NC/Nga mice were left for 24 hours for recovery of fine wounds on the shaved skin.
After healing, 200 μL of 1%1-chloro-2,4-dinitrobenzene (DNCB) in acetone/olive oil (3:1) was topically applied to the dorsal skin (primary skin application). Secondary skin application was performed after three days for sensitization.
Seven days after the primary skin application, 150 μL of 0.4% DNCB in acetone/olive oil (3:1) was topically applied, and applied to the dorsal skin three times a week for five weeks.
The phosphate of Compound 1 (hereinafter, referred to as a phosphate compound) obtained according to Example 3 was used as a test material, and the test material was treated before applying DNCB from two weeks after the primary skin application. The dosage of the test material was calculated based on a body weight of mice measured on the day of administration, and the test material was topically applied to atopic skin using a glass stick (a total of 56 times twice a day for 28 days, six hours at a treatment interval). 0.5% methylcellulose (0.5% MC) was administered to the control group (vehicle).
Week 6 after the primary skin application, the test animals were autopsied. Specifically, the test animals were anesthetized using isoflurane, and as much blood as possible was drawn from the caudal vena cava with a syringe and stored in a 5 mL vacuum tube containing a blood clot activator. The blood was allowed to stand at room temperature for 15-20 minutes for coagulation and then centrifuged at 3000 rpm for 10 minutes.
Atopic dermatitis scores were rated as none (0), mild (1), moderate (2), and severe (3) for each of the five symptoms (erythema, dryness, skin edema and hematoma, erosion, and keratinization). The total dermatitis score representing clinical severity was defined as the sum of all scores (maximum score: 15). The evaluation was conducted twice a week by the same researcher at the same time.
To evaluate a scratching behavior at week 4, mice were placed in cages and the frequency of scratching was evaluated for 30 minutes.
Quantitative analysis was performed using a serum IgE and histamine with ELISA kit.
After measuring a weight of the spleen and mouse, a spleen-to-body weight ratio (relative organ weight) was calculated.
TARC, TSLP, IL-4, IL-1B and TNF-α were quantified using skin tissue through qRT-PCR.
On the day of autopsy, the skin in 10% neutral buffered formalin solution was analyzed by staining with H & E and toluidine blue.

[2] = tested on: HDM-induced animal model (NC/Nga mice); experiment: HDM-induced atopic dermatitis model (topical); format: in vivo
Description: After the back of the ears and neck of the NC/Nga mice was shaved with a razor, a proper amount of depilatory was applied and depilation was performed. After the depilatory was wiped out, about 100 mg of an atopic dermatitis-inducing reagent (Biostir, Japan) was uniformly applied to the back of the ears and neck using a micro pipette tip.
After hair removal was performed using a razor as needed, 150 μL of 4% SDS aqueous solution was uniformly applied to the back of the ears and neck using a micro pipette. After drying with cold air using a dryer, the solution was naturally dried for about two to three hours. About 100 mg of the AD-inducing reagent was uniformly applied to the back of the ears and neck using a micro pipette tip. All treatments were performed 11 times twice a week for a total of six weeks.
As a test material, an appropriate amount of phosphate in Compound 1 obtained according to Example 3 was weighed and then prepared by dissolving in a local vehicle (acetone:DMSO-7:1 v/v). At the time of preparation and administration, the test material was maintained in a light-shielding state, and was prepared and used every three days under the conditions of light-shielding refrigeration.
The administration of the test material was started from the time when the atopic score reached 2.1 to 2.3 points, and was directly applied to the center of the skin twice/day until the day of autopsy from the start date of administration of the test material (Day 0) for three weeks.
The AD-inducing material was applied and sensitized 24 hours before the autopsy, and the drug was administered and applied one hour before the autopsy. […]
To evaluate atopic dermatitis, evaluation of a skin clinical index (Matsuda et al., 1997) was performed from week 0 of the onset of atopic dermatitis. […] After that, the sum of the scores for each item was evaluated as a final grade.
An IgE concentration in blood was analyzed with serum obtained by centrifuging the blood collected on the day of autopsy, and IL-1B, IL-4, IL-13, TNF-α, IL-6, and IL-31 were analyzed using the extracted skin. […]

SMILES | Reduction of scratching behavior compared to the control group (vehicle) ([1]; 3% phosphate compound) | Skin severity score (clinical atopic dermatitis score) ([1]; FIG. 11) | Spleen-to-body weight ratio ([1]; FIG. 15) | Histological properties of atopic dermatitis (skin staining) ([1]; FIG. 16) | Atopic dermatitis-related cytokines of plasma and skin ([1]; FIGS. 13 and 14) | Reduction of scratching behavior compared to the control group (vehicle) ([1]; dosed groups) | Symptoms of atopic dermatitis ([1]; twice a day for 28 days, FIGS. 11 to 16) | Skin severity scores (clinical atopic dermatitis score) ([2]; twice/day for three weeks, all dosed groups, FIG. 28) | Atopic dermatitis-related cytokines ([2]; skin, FIG. 30) | Serum IgE levels ([2]; twice/day for three weeks, FIG. 29)
C[C@@H]1CN(C(=O)CC#N)CC=C1c1cc(NC(=O)C2CC2)nc2[nH]ccc12 [Example 3, (S)—N-(4-(1-(2-cyanoacetyl)-3-methyl-1,2,3,6-tetrahydropyridin-4-yl)-1H-pyrrolo[2,3-b]pyridin-6-yl)cyclopropanecarboxamide] | at least 50% | significantly reduced | decreased | changes the histological properties of atopic dermatitis | reduced | at least 30% | ameliorates symptoms of atopic dermatitis | significantly reduced |  | 
C[C@@H]1CN(C(=O)CC#N)CC=C1c1cc(NC(=O)C2CC2)nc2[nH]ccc12 [Compound 1, (S)—N-(4-(1-(2-cyanoacetyl)-3-methyl-1,2,3,6-tetrahydropyridin-4-yl)-1H-pyrrolo[2,3-b]pyridin-6-yl)cyclopropanecarboxamide] |  |  |  |  |  |  |  |  | decrease in atopic dermatitis-related cytokines | decreased compared to the control group
